Values of other authors in patent US20240182984A1, “METHODS FOR ASSESSING PROLIFERATION AND ANTI-FOLATE THERAPEUTIC RESPONSE” (priority 2021, published 2024).

Tested on: bronchioid subtype of LUAD
Conditions: compared with other LUAD subtypes

Compound: Nc1nc2[nH]cc(CCc3ccc(C(=O)N[C@@H](CCC(=O)O)C(=O)O)cc3)c2c(=O)[nH]1 [pemetrexed]
- sensitivity of the bronchioid subtype of LUAD (Group 1): more sensitive
